The text below walks through data of patent publication US20120040930A1, “TETRACYCLIC TERPENE SERIES COMPOUNDS, METHODS FOR PREPARING SAME, USES THEREOF AS MEDICINES AND PHARMACEUTICAL COMPOUNDS CONTAINING SAME” (priority 2005, published 2012).

The target of test [1] is T1, human serum butyrylcholinesterase (BChE) (Homo sapiens, UniProt P06276).
T1 construct: BChE isolated from human serum; from tissue; host or cells: human serum
Kind of test: biochemical. The settings on record: human serum BChE; read-out: BChE.

In test [2] the test system is muscle nicotinic acetylcholine receptors. As to the kind of experiment: Electrophysiology: interaction with muscle nicotinic acetylcholine receptors, frog neuromuscular junction. To be noted: 160 μM. The source says:
(§1) Secondly, the inventors determined, using electrophysiology, the ability of compound 8e to interact with muscle nicotinic acetylcholine receptors.

Test [3] deals with T2, muscle nicotinic acetylcholine receptors (Mus musculus, UniProt P02716+P04756+P09690+P20782).
T2 construct: isolated living vertebrate (frog and mouse) neuromuscular preparations; from tissue; host or cells: isolated mouse neuromuscular preparation
Kind of test: Electrophysiology: interaction with muscle nicotinic acetylcholine receptors, mouse neuromuscular junction.
From the text: as §1

Test [4] deals with T3, acetylcholinesterase (AChE) isolated from Electrophorus electricus (Electrophorus electricus, UniProt O42275).
T3 construct: AChE isolated from Electrophorus electricus; from tissue
Kind of test: biochemical.

Test [5] concerns skeletal neuromuscular junction. As to the kind of experiment: Cellular electrophysiology on isolated mouse neuromuscular preparations. The protocol: This extension of synaptic potentials is observed when the mouse neuromuscular preparations are placed in a normal survival medium (Krebs-Ringer) containing (in mM) NaCl, 151; KCl, 5; MgCl2, 1; CaCl2, 2; glucose, 11; and HEPES-NaOH, 5 (pH 7.4); and when the survival medium contains low concentrations of CaCl2 (0.4-1 mM) and high concentrations of MgCl2 (4-8 mM) to reduce the release of acetylcholine. The extension of synaptic potentials at the neuromuscular junction reflects the mean lifespan of synaptic channels opened by acetylcholine during their interactions with skeletal muscle nicotinic receptors. Inhibition of acetylcholinesterase increases acetylcholine concentration at the synaptic cleft, which allows acetylcholine to bind repeatedly with these receptors, thus extending the duration of synaptic responses.
Thus, the inhibition of acetylcholinesterase by this compound is not accompanied by depolarization of the muscle membrane.
From a pharmacological point of view, the inventors first tested the ability of compound 8e to modify nerve axon conduction.

Where [6] appears, read: AChE isolated from Electrophorus electricus, read-out: AChE IC50.

Like-named read-outs stand apart in the source and are kept apart here.

T1 sequence (P06276 29-602): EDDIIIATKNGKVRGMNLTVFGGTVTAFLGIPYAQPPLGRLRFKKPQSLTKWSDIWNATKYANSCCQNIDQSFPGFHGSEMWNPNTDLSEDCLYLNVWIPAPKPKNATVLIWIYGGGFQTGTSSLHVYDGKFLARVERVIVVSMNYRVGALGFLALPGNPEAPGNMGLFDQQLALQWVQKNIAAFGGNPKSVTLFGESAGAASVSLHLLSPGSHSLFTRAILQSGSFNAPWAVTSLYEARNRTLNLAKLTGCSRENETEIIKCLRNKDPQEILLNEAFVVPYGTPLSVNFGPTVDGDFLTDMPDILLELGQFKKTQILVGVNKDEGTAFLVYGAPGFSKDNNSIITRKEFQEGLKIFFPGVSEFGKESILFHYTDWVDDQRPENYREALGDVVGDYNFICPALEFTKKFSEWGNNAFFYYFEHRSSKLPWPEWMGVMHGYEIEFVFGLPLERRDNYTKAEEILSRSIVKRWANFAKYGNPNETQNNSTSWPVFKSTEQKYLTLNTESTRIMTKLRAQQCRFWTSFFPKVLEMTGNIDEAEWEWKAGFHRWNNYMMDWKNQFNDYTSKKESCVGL
T3 sequence (O42275 24-633): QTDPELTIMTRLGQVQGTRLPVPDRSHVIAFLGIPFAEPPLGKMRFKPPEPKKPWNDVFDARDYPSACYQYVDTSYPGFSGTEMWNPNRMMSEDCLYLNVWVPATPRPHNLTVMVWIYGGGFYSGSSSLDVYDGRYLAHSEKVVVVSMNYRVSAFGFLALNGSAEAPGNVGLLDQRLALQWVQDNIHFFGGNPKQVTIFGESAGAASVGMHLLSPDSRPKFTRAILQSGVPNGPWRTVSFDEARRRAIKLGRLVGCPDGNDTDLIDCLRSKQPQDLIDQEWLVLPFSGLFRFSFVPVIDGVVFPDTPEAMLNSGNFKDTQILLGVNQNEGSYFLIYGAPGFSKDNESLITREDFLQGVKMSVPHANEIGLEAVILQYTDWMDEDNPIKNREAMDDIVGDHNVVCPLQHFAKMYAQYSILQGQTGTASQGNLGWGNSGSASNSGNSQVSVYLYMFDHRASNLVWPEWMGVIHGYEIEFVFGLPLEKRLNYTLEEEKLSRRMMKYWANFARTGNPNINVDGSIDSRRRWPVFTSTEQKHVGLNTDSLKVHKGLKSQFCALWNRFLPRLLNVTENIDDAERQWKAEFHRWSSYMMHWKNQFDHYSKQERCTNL
T2 sequence (P04756 21-457): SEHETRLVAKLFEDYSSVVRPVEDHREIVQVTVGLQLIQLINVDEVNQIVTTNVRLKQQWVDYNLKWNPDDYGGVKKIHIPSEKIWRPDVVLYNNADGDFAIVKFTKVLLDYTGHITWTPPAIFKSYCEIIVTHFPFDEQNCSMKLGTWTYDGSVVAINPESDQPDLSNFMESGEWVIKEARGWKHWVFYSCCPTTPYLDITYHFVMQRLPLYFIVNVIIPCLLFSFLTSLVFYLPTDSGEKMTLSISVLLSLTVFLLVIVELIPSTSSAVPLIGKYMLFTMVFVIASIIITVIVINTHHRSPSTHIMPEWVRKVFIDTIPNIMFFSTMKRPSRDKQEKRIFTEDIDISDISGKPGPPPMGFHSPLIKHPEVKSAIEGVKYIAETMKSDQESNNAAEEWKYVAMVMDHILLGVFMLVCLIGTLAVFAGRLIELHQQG
T2 sequence (P09690 24-501): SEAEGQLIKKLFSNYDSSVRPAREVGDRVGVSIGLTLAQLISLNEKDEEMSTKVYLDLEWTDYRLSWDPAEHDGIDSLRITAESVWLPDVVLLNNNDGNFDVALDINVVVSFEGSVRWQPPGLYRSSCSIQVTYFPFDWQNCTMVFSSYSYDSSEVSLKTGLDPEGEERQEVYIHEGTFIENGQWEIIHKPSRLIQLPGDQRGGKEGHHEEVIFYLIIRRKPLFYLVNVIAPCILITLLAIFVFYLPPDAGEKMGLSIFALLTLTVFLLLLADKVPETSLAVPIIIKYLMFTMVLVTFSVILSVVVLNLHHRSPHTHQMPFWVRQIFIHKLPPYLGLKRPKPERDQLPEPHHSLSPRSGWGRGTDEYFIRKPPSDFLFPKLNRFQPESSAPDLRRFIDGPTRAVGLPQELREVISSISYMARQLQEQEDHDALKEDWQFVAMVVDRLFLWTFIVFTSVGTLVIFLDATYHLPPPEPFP
T2 sequence (P02716 25-520): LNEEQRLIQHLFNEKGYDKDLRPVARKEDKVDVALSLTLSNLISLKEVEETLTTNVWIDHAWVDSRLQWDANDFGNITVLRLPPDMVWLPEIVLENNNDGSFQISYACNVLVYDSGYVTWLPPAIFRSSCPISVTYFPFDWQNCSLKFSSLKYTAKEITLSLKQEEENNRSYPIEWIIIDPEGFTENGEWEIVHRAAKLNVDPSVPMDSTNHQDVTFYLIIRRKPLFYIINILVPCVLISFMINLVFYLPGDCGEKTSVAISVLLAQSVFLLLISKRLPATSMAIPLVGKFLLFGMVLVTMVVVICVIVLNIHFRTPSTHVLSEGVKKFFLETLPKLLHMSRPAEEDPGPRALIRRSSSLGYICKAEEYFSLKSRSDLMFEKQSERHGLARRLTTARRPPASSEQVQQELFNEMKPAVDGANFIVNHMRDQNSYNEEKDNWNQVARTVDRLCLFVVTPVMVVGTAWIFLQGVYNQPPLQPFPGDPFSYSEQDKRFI
T2 sequence (P20782 21-493): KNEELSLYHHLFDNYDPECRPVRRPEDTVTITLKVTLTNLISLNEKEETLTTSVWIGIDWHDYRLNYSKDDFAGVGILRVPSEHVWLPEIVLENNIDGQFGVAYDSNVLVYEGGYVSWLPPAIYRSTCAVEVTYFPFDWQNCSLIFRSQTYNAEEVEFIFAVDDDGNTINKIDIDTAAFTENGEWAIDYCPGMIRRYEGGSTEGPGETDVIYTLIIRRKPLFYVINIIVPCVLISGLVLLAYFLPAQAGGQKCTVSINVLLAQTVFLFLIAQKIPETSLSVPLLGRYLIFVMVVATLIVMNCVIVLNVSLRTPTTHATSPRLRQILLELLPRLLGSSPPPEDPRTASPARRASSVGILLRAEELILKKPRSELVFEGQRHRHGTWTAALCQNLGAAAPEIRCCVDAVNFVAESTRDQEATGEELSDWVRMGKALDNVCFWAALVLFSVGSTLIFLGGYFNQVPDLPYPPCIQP

As for `CC[C@H](C)C1=N[C@H]2CC=C3C[C@H]4C(=O)C[C@]5(C)[C@@H]([C@H](C)N(C)C)[C@H](O)C[C@@]5(C)[C@@H]4CC[C@H]3[C@]2(C)CO1` [Compound 8e, (20S)-10(9->1)abeo-4,14α-dimethyl-20-dimethylamino(2′-(S-1-methylpropyl)-4′,4′-dihydro[3′,1′]oxazin)-5α,9-pregn-1(10)-en-16α-ol-11-one], the IC50 was > 1 µM in test [1] and 0.013 µM in test [4] (setting [6]). The “block of motor end-plate potentials evoked by motor nerve stimulation” value was found to be 80% in test [2] and 80% in test [3] (160 μM, mouse neuromuscular junction). Further, in test [3] (80 μM, species not given), the “motor end-plate miniature potentials” value is “causes a decrease in amplitude and blocking”. In addition, the nerve axon conduction entry in test [5] (1 μM to 300 μM, mouse neuromuscular preparations) is “does not apparently modify nerve conduction”. In test [5] (1-25 μM, mouse neuromuscular preparations, normal Krebs-Ringer or low CaCl2/high MgCl2 medium), the “synaptic response half-times (motor end-plate potentials and miniature end-plate potentials)” value is reported as “produces an extension of synaptic response half-times”. In test [5] (concentrations that extend synaptic potentials and higher (160-200 μM)), the “effect on muscle fiber resting potentials” value was “does not have a significant effect”.

With `CC(=O)O[C@@H]1C[C@@]2(C)[C@@H]3CC[C@@H]4C5(CC[C@H](NC(=O)C(C)C)[C@@]4(C)C=O)C[C@@]35C(=O)C[C@]2(C)[C@H]1[C@H](C)N(C)C` (stereo partly drawn) [Compound 14, (20S)-16α-acetyl-3-isobutyrylamino-9,19-cyclo-4α-formyl-4,14α-dimethyl-20-dimethylamino-5α,9-pregnan-11-one], the IC50 in test [1] and in test [4] (setting [6]) was > 1 µM each time.

On to `CCC(C)C(=O)N[C@H]1CC=C2C[C@H]3C(=O)C[C@]4(C)[C@@H]([C@H](C)N(C)C)[C@H](O)C[C@@]4(C)[C@@H]3CC[C@H]2[C@]1(C)CO` (stereo partly drawn) [Compound 7e, (20S)-10(9->1)abeo-4α-hydroxymethyl-4,14α-dimethyl-20-dimethylamino-3 (S-2-methylbutyrylamino)-5α,9-pregn-1(10)-en-16α-ol-11-one], for which the results for the IC50 in test [1] and in test [4] (AChE IC50) were > 10 µM and 0.105 µM, respectively.

With `C[C@@H]([C@H]1[C@H](O)C[C@@]2(C)[C@@H]3CC[C@@H]4C(=CC[C@H](NC(=O)C5CCCCC5)[C@@]4(C)CO)C[C@H]3C(=O)C[C@]12C)N(C)C` [Compound 7d, (20S)-10(9->1)abeo-3-(cyclohexanecarboxyamino)-4α-hydroxymethyl-4,14α-dimethyl-20-dimethylamino-5α,9-pregn-1(10)-en-16α-ol-11-one], the values for the IC50 in test [1] and in test [4] (setting [6]) were 4.02 µM and > 1 µM, respectively.

For `CC(=O)O[C@@H]1C[C@@]2(C)[C@@H]3CC[C@@H]4C5(CC[C@H](NC(=O)C(C)C)[C@@]4(C)COS(=O)(=O)c4ccc(C)cc4)C[C@@]35C(=O)C[C@]2(C)[C@H]1[C@H](C)N(C)C` (stereo partly drawn) [Compound 23, (20S)-16α-acetyl-3-isobutyrylamino-9,19-cyclo-4α-hydroxytosylmethyl-4,14α-dimethyl-20-dimethylamino-5α,9-pregnan-11-one], the IC50 in test [1] was > 100 µM; in test [4] (setting [6]) it was 4.37 µM.

For the compound `C[C@@H]([C@H]1[C@H](O)C[C@@]2(C)[C@@H]3CC[C@@H]4C(=CC[C@H](NC(=O)c5ccccc5)[C@@]4(C)CO)C[C@H]3C(=O)C[C@]12C)N(C)C` [Compound 7b, (20S)-10(9->1)abeo-3-benzoylamino-4α-hydroxymethyl-4,14α-dimethyl-20-dimethylamino-5α,9-pregn-1(10)-en-16α-ol-11-one], the IC50 in test [1] was 1.88 µM; in test [4] (setting [6]), > 10 µM.

Regarding `CC(C)C(=O)N[C@H]1CCC23C[C@]24C(=O)C[C@]2(C)[C@@H]([C@H](C)N(C)C)[C@H](OC(=O)C(C)(C)C)C[C@@]2(C)[C@@H]4CC[C@H]3[C@]1(C)/C=N/Cc1ccccc1` (stereo partly drawn) [Compound 19, (20S)-16α-pivalyl-3-isobutyrylamino-9,19-cyclo-4α-benzyliminomethyl-4,14α-dimethyl-20-dimethylamino-5α,9-pregnan-11-one], the figures for the IC50 in test [1] and in test [4] (setting [6]) were 1.28 µM and > 1 µM, respectively.
